Source: ChEMBL document CHEMBL1201862, “PubChem BioAssay data set” (2004)
Counter-ions that a name gives are not always drawn. Calls of active or inactive are those of the source.

Key:
Escherichia coli [1] = test: microbe, parasite or virus in culture
[2] = target: T1, Zinc finger protein mex-5 (Caenorhabditis elegans, UniProt Q9XUB2); test: MEX-5/TCR-2 RNA interaction inhibitors, dose response, biochemical, C. elegans, fluorescence polarization (AID 1960)
T1 sequence (Q9XUB2 whole entry): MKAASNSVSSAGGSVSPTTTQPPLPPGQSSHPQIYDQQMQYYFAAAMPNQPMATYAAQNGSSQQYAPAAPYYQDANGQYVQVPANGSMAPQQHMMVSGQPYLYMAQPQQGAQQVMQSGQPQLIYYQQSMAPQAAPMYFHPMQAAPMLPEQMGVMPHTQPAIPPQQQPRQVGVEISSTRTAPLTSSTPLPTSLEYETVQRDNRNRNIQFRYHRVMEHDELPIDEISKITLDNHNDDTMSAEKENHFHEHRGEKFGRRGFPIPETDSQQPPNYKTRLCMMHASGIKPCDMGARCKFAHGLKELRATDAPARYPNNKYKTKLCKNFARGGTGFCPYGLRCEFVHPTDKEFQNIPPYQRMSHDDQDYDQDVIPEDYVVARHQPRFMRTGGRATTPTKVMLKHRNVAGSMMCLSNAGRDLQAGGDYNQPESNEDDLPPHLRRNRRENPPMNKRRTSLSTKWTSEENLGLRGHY

Escherichia coli [3] = test: microbe, parasite or virus in culture; remark: listed apart in the source
[4] = target: T2, RNA-binding protein pos-1 (Caenorhabditis elegans, UniProt G5EF15); test: inhibitors of POS-1/mex-3 RNA binding, dose response, biochemical, fluorescence polarization (AID 1964);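 also: purified POS-1 fused to maltose binding protein made in E. coli; potency of compounds blocking POS-1 binding to fluorescent RNA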
T2 sequence (G5EF15 whole entry): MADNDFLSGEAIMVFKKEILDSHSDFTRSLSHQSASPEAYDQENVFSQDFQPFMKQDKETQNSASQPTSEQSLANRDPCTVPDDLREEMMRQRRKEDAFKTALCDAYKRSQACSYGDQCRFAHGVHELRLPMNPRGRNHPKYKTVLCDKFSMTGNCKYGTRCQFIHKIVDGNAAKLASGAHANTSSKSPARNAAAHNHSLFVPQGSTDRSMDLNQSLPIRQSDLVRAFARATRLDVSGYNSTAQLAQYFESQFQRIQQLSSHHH

[5] = ARNT/TACC3 interaction disruptors, potency, confirmation, biochemical, AlphaScreen, cherry-picked samples (AID 651703); format: functional, Homo sapiens;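 also: His-tagged ARNT PAS-B domain paired with GST-TACC3 E629A dimer coactivator fragment; potency of inhibitors that break up the complex and lower AlphaScreen signal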
Streptococcus = test: Group A Streptococcus viability loss, dose response, counter-screen for streptokinase expression inhibitor project, luminescence, BacTiterGlo (AID 1915); format: functional, organism-based;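 also: potency for reduction of bacterial viability or growth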
[6] = tested on: Streptococcus sp. 'group A'; test: growth inhibition of control SK(-) GAS strain, dose response, counter-screen for streptokinase expression inhibitor project, luminescence, kanamycin, BacTiterGlo, confirmation (AID 1900); format: functional, organism-based
[7] = cytotoxicity toward NIH3T3 fibroblasts, dose response, counter-screen, cell-based, ATP luminescence, mouse fibroblasts (AID 2010); format: functional;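 also: cells exposed to compound for about 90 hours before reading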
[8] = Luminescence Cell-Based Dose Retest to Confirm Inhibitors of Cancer Stem Cells. [Related pubchem assays (depositor defined):AID2717, AID2721]; format: functional; conditions: Homo sapiens
[9] = HEK293T cytotoxicity, dose response, cytotoxicity control for miR-122 modulator project, cell-based, inhibitor set, cherry-pick, set 2 (AID 720697); format: functional
[10] = inhibitors of intracellular T. cruzi replication, confirmation, NIH3T3 host cells, beta-gal luminescence (AID 2044); format: functional, cell-based;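 also: intracellular parasites grown in NIH/3T3 mouse fibroblasts as host cells; luminescent beta-galactosidase reporter signal from transgenic T. cruzi replicating inside host cells; inhibitors lower the luminescence signal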
Streptokinase A = target: T3, Streptokinase A (Streptococcus pyogenes serotype M1, UniProt P10520); test: S. pyogenes streptokinase expression inhibitors, potency, dose response, plasminogen activation absorbance, OD405 (AID 1914); format: functional, Streptococcus pyogenes M1 GAS;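 also: secreted streptokinase activity via plasminogen activation per viability signal from cell pellet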
T3 sequence (P10520 whole entry): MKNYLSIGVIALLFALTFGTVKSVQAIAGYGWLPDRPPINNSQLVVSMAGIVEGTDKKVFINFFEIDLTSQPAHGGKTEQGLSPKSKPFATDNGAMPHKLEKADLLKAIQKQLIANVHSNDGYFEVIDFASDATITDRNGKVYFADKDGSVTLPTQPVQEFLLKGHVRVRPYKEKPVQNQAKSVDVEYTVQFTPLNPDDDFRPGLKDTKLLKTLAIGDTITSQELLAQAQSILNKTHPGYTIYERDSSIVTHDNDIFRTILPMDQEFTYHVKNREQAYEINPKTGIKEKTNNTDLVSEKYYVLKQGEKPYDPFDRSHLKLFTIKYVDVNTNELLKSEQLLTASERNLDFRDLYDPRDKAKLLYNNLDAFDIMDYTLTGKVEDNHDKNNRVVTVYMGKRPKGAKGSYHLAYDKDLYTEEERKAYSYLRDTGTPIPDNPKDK

[11] = Counterscreen for activators of the function of SWI/SNF related, matrix associated, actin dependent regulator of chromatin, subfamily a, member 2 (SMARCA2, BRM): Luminescence-based cell-based high throughput dose response assay to identify non-selective compounds using the VP16 reporter assay.; format: functional
[12] = target: SWI/SNF-related matrix-associated actin-dependent regulator of chromatin subfamily A member 2 (Homo sapiens, UniProt P51531); test: Luminescence-based cell-based high throughput dose response assay to identify activators of the function of SWI/SNF related, matrix associated, actin dependent regulator of chromatin, subfamily a, member 2 (SMARCA2, BRM).; format: functional
[13] = target: T4, Nuclear receptor subfamily 0 group B member 1 (Homo sapiens, UniProt P51843); format: functional, cell-based;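 also: HEK293T cells transfected with SF-1 and DAX-1 plus StAR promoter luciferase reporter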
T4 sequence (P51843 whole entry): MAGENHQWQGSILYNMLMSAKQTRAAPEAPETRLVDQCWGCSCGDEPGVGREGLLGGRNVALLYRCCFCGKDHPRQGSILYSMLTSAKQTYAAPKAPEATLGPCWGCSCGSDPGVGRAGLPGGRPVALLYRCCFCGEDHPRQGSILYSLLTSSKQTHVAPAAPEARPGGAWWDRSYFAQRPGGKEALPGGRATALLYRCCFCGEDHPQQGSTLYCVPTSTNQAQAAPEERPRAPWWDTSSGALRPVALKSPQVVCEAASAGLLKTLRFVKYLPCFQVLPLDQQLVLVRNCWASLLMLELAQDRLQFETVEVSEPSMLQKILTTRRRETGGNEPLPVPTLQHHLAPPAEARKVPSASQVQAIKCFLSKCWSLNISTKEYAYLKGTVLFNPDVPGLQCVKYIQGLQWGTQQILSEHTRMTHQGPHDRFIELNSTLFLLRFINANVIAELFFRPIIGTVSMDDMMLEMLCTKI

cells = format: functional, cell-based
[14] = target: T5, Mannose-6-phosphate isomerase (Homo sapiens, UniProt P34949); test: human PMI inhibitors, high substrate, primary screen, biochemical, fluorescence intensity, high mannose 6-phosphate (AID 1220)
T5 sequence (P34949 whole entry): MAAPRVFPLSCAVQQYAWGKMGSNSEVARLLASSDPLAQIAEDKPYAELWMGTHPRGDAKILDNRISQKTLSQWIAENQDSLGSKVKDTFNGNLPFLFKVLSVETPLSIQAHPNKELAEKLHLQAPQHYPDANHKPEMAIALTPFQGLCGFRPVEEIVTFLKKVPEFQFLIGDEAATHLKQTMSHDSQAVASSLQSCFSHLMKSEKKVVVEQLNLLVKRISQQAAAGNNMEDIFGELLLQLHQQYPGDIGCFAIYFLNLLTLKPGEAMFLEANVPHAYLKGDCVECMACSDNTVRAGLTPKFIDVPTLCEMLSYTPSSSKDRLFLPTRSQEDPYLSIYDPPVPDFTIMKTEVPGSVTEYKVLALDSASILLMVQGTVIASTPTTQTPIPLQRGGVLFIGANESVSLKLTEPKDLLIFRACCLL

[15] = target: T6, Sentrin-specific protease 8 (Homo sapiens, UniProt Q96LD8); format: functional
T6 sequence (Q96LD8 whole entry): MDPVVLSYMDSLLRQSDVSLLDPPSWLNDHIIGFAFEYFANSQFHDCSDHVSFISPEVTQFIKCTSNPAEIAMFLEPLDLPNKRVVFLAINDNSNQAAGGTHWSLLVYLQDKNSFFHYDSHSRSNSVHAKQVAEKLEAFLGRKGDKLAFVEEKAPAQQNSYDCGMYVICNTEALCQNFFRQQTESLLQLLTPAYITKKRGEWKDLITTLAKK

[16] = target: T6, Sentrin-specific protease 8; format: functional; remark: listed apart in the source
[17] = Luminescence Cell-Based Dose Response HTS to Identify Inhibitors of 5'UTR Stem-Loop Driven Prion Protein mRNA Translation in H4 Neuroglioblastoma Cells. [Related pubchem assays: 1827 (Project Summary), 1813 (Primary HTS)]; format: functional
[18] = inhibitors of SNCA 5'UTR-driven reporter translation, confirmation, H4 neuroglioma cells, luminescence (AID 1988); format: functional, cell-based
[19] = target: T7, Corticotropin-releasing factor receptor 2/Corticotropin-releasing factor-binding protein (Homo sapiens, UniProt P24387+Q13324); test: Dose Response confirmation of uHTS hits for small molecule antagonists of the CRF-binding protein and CRF-R2 receptor complex.; format: functional; conditions: read-out: IC50_Mean
T7 sequence (Q13324 whole entry): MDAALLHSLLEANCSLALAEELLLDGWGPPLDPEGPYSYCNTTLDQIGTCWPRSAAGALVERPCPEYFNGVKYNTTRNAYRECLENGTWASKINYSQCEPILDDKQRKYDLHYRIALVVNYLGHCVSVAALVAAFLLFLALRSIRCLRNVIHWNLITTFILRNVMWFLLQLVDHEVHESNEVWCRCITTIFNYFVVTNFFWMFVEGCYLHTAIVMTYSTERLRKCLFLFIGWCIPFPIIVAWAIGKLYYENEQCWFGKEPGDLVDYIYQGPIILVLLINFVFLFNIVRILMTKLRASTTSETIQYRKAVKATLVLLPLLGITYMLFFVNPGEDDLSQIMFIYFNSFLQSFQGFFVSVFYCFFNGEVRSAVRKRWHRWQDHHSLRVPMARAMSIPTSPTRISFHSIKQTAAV
T7 sequence (P24387 whole entry): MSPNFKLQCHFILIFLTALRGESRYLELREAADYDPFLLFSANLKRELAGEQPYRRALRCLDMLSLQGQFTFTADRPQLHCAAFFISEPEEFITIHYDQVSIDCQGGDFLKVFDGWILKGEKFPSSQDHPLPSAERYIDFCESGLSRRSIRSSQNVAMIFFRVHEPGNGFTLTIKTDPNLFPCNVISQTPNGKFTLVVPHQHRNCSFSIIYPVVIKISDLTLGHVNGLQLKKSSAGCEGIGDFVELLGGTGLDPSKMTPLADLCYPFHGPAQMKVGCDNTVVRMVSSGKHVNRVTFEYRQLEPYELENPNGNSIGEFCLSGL

[20] = CRF-BP/CRF-R2 complex antagonists, dose response, cell-based, uHTS hits, 384-well (AID 651639); format: functional, Homo sapiens; conditions: read-out: IC50_Mean
[21] = target: T7, Corticotropin-releasing factor receptor 2/Corticotropin-releasing factor-binding protein; test: activators of CRF receptor 2 with binding protein – uHTS hits, confirmation (AID 602473); format: functional; conditions: read-out: EC50_Mean
[22] = growth suppression of PTEN-null colon cells, dose response, cell-based, HCT116 PTEN knockout (AID 1047); format: functional;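 also: HCT116 colon tumor cells with PTEN knocked out; cells exposed to compound for 60 hours before readout; potency for loss of cell viability measured by luminescence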
[23] = target: Arf-GAP with SH3 domain, ANK repeat and PH domain-containing protein 1 (Homo sapiens, UniProt Q9ULH1); format: functional;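 also: biochemical fluorescence polarization dose–response screen measuring inhibition of ASAP1; ASAP1 GAP domain stimulating GTP hydrolysis by truncated human ARF1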
[24] = target: ADP-ribosylation factor GTPase-activating protein 1 (Rattus norvegicus, UniProt Q62848); test: Fluorescence polarization-based biochemical high throughput dose response screening assay to identify inhibitors of ADP-ribosylation factor GTPase activating protein 1 (ARFGAP1).; format: functional
[25] = growth suppression of beta-catenin-knockout colon cells, dose response, cell-based, HCT116, human colon tumor (AID 1045); format: functional;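 also: HCT116 colon tumor cells with beta catenin knocked out; cells exposed to compound for 60 hours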
Large T antigen = Large T antigen (Simian virus 40, UniProt P03070); format: functional, Betapolyomavirus macacae;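 also: Confirmatory-stage PubChem screen for compounds that inhibit SV40 T antigen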
Mu-type opioid receptor = Mu-type opioid receptor (Homo sapiens, UniProt P35372); format: functional, cell-based;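 also: U2OS cells with beta-arrestin recruitment to OPRM1 by beta-gal complementation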
Chain of Mu-type opioid receptor (P35372 whole entry): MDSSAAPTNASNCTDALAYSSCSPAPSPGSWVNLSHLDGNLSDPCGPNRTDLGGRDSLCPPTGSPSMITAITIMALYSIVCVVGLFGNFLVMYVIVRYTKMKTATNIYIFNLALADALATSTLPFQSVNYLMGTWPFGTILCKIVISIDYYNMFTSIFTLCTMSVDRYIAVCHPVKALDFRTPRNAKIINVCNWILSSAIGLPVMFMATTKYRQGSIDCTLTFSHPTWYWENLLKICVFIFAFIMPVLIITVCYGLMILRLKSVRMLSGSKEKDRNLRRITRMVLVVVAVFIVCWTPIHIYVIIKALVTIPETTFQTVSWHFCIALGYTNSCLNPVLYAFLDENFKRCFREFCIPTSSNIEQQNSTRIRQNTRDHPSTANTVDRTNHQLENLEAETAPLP

Chain of ADP-ribosylation factor GTPase-activating protein 1 (Q62848 whole entry): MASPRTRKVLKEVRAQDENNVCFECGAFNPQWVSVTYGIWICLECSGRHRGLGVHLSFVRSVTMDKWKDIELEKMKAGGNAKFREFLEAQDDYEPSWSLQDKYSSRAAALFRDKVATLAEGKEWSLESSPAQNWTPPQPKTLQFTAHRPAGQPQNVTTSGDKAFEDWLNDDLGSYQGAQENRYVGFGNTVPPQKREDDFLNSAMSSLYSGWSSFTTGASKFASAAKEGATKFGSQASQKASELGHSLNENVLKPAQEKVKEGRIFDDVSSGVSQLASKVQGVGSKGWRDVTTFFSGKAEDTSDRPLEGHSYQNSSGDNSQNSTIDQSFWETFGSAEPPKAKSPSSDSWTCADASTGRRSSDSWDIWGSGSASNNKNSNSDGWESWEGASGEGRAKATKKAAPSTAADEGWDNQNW
Chain of Arf-GAP with SH3 domain, ANK repeat and PH domain-containing protein 1 (Q9ULH1 whole entry, the tested form may be a part): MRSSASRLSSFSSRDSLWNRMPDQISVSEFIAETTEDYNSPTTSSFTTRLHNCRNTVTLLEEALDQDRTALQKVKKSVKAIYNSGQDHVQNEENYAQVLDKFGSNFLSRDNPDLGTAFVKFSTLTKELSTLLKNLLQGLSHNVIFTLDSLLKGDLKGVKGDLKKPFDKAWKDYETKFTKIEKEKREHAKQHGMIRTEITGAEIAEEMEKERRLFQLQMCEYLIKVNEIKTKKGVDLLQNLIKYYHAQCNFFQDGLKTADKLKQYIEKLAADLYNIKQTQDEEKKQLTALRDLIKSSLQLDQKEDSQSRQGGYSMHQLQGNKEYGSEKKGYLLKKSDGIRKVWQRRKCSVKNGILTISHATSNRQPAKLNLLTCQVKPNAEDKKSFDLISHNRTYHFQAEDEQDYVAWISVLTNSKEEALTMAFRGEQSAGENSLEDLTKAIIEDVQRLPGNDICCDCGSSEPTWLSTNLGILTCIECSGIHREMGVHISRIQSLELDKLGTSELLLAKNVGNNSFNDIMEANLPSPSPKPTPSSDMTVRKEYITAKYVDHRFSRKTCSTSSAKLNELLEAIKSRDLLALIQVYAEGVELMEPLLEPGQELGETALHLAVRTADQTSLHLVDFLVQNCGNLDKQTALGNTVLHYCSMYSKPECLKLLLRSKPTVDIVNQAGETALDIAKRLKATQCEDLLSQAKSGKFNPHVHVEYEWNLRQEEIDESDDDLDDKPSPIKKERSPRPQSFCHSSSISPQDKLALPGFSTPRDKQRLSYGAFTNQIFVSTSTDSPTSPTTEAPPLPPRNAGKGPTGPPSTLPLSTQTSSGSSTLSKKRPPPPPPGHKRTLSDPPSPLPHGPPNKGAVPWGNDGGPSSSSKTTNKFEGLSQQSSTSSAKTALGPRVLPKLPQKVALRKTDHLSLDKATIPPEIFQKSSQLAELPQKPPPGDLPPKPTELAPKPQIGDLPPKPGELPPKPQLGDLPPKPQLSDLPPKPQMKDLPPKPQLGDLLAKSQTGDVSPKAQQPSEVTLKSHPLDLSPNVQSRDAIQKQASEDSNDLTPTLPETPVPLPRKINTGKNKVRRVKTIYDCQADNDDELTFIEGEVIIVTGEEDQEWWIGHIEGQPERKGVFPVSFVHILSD
Chain of SWI/SNF-related matrix-associated actin-dependent regulator of chromatin subfamily A member 2 (P51531 whole entry): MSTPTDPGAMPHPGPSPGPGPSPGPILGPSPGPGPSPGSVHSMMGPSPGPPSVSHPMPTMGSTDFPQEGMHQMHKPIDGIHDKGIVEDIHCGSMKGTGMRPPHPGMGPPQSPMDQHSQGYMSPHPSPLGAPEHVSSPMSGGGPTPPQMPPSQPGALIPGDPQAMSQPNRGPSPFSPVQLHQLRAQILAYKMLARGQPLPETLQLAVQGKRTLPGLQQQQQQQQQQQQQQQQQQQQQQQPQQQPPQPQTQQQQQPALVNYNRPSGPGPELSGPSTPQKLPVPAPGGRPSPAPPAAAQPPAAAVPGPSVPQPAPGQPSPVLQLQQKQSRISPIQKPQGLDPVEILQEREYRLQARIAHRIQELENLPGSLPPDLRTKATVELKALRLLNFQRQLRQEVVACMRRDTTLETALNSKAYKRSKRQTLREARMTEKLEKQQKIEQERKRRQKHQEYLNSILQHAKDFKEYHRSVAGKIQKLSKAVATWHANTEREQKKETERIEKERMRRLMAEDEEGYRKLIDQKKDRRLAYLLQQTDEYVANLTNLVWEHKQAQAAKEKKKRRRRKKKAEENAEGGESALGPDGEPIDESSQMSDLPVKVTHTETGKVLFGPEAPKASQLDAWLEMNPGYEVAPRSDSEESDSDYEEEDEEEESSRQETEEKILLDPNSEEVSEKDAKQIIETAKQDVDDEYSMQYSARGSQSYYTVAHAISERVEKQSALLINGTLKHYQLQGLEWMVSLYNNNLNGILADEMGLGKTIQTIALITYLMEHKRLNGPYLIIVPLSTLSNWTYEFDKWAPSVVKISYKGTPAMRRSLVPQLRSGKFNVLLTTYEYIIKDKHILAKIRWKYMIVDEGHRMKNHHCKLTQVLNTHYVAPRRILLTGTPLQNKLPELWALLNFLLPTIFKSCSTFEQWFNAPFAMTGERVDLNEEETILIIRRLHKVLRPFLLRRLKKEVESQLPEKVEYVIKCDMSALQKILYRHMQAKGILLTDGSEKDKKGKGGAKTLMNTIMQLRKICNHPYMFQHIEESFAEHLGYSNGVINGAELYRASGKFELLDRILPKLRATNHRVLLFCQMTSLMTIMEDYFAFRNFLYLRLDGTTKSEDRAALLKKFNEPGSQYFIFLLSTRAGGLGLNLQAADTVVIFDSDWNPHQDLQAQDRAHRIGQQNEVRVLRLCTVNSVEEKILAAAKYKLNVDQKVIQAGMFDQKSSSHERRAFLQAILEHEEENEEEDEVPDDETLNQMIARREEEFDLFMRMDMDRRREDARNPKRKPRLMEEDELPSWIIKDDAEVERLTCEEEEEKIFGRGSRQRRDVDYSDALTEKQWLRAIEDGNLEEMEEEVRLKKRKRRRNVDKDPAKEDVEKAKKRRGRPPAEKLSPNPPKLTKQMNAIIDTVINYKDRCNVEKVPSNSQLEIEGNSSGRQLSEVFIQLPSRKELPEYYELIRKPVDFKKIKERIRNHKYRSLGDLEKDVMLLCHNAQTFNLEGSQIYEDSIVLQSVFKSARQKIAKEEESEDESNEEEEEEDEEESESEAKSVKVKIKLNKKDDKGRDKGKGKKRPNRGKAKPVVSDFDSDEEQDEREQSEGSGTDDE
Chain of Large T antigen (P03070 whole entry): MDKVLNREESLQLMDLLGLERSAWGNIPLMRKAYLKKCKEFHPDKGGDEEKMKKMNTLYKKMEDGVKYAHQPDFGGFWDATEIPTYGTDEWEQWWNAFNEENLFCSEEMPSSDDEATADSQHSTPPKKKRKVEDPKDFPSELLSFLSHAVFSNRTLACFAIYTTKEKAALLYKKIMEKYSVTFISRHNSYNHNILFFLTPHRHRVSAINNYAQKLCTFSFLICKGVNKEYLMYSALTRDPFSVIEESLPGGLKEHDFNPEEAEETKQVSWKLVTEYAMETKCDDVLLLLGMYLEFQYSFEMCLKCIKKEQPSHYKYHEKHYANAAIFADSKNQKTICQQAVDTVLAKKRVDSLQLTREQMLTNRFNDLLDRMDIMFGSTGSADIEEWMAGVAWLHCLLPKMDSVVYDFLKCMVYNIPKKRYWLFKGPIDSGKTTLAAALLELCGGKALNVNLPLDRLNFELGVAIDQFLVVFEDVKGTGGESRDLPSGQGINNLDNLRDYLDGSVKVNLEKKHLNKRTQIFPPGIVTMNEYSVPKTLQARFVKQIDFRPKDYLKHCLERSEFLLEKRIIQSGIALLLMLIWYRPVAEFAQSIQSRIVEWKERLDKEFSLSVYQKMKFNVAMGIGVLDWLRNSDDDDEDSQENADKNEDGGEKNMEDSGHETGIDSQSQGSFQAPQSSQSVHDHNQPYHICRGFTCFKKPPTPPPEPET

In the case of `CN(C)[C@@H]1C(=O)C(C(N)=O)=C(O)[C@@]2(O)C(O)=C3C(=O)c4c(O)cccc4[C@@](C)(O)C3[C@H](O)C12` (some centres not stated), the AC50 (Escherichia coli [1]) is reported as 9.92 µM (active), the EC50 [2] is reported as 20.5 µM (active) and the AC50 (Escherichia coli [3]) is reported as < 0.3 µM (active). The EC50 [4] was 54.1 µM (active), the AC50 [5] was 75.2 µM (active) and the EC50 (Streptococcus) was 0.277 µM (active). For the same compound, the EC50 [6] was 0.088 µM (active).

With `C/C(=N\Nc1cc(N2CCCCC2)nc(C)n1)c1ccc(Br)cc1` the EC50 [7] was > 60 µM (not active), the AC50 [8] was 5.52 µM (active) and the AC50 [9] was 5.41 µM (active). For the same compound, the EC50 (Streptococcus) was > 50 µM (not active), the EC50 [6] was 6.7 µM (active) and the EC50 [10] was 0.7 µM (active). The EC50 (Streptokinase A) was 46.7 µM (inconclusive).

In the case of `O=C1C(Sc2ccccc2)=C[C@@]2(O)CC[C@@H](O)[C@]1(Sc1ccccc1)[C@H]2O`, the EC50 [11] is reported as > 91.3 µM (inactive) and the EC50 [12] is reported as > 91.3 µM (inactive).

In the case of `O=C(N/N=C/c1ccc2c(c1)OCO2)c1ccccn1`, the IC50 [13] is reported as > 67.5 µM (inactive) and the IC50 (cells) is reported as > 67.5 µM (inactive).

For `NC(=O)c1ccc(/N=C2\C(=O)Nc3ccc([N+](=O)[O-])cc32)cc1`, the IC50 [14] was 27.5 µM (active), the IC50 [15] was 4.25 µM (active) and the IC50 [16] was 3.98 µM (active).

For `COc1ccc(C(=O)NCCC2=CCCCC2)cc1`, the IC50 [13] was > 0.278 µM (active), the EC50 [17] was 8.58 µM (active) and the IC50 (cells) was > 67.5 µM (inactive). The EC50 [18] was 8.69 µM (inconclusive).

For `COc1ccc(/C=C2\CCC/C(=C\c3ccc(OC)c(OC)c3OC)C2=O)c(OC)c1OC`, the IC50 [19] was 4.04 µM (active), the IC50 [20] was 7.33 µM (active) and the EC50 [21] was > 53 µM (inactive).

For `O=C(/C=C\c1cn(-c2ccccc2)nc1-c1ccccc1)Nc1nccs1`, the EC50 [22] was 7.09 µM (active), the IC50 [23] was 26.2 µM (inactive) and the IC50 [24] was 32.1 µM (inactive). For the same compound, the EC50 [25] was 7.96 µM (active).

For `NCCc1c[nH]c2ccc(O)cc12` [SEROTONIN HYDROCHLORIDE], the IC50 (Large T antigen) was 41.3 µM (active) and the EC50 (Mu-type opioid receptor) was 92.4 µM (inactive).

In the case of `CCc1noc(C)c1C(=O)N1CCS/C1=N\c1cccc(Cl)c1C`, the IC50 [19] is reported as < 0.368 µM (active), the IC50 [20] is reported as > 20 µM (inactive) and the EC50 [21] is reported as > 53 µM (inactive).
